Experimental findings from PMC11790660 (Frontiers in Chemistry, 2025) are described below.

Where two headings read alike, the source gives them in different places. Some results are limits rather than exact numbers.

For data set [1], the system named is LO2 cell lines (normal liver cell). As to the kind of experiment: cells. Conditions: Homo sapiens, L02, 24 h, read-out: IC50 LO2.
The next data set has as its system A549. As to the kind of experiment: cells. It is filed as cell-based.
A further data set concerns HeLa. As to the kind of experiment: cells. Type of data set: cell-based. Conditions: read-out: IC50 against cell proliferation, HeLa.
Another data set deals with MCF-7. As to the kind of experiment: cells. It is filed as cell-based.
Data set [2] has as its system HepG2 cell lines (liver tumor cell). Conditions: for IC50: read-out: IC50 HepG2.
Data set [3] shares this test system. As to the kind of experiment: cells. Conditions: Homo sapiens, HepG2, 24 h, read-out: IC50 HepG2.
Data set [4] concerns LO2 cell lines (normal liver cell). Conditions: for IC50: read-out: IC50 LO2.
Data set [5] has as its system WI38 normal cells. Conditions: for IC50: read-out: IC50 WI38.
The test system of data set [6] is WI38 normal cells. The data set is described as follows: cells. Conditions: Homo sapiens, WI-38, read-out: IC50 WI38.
Data set [7] in a line: H2S release, methylene blue (MB+) method. It is filed as physicochemical. Conditions: MB+ method with TECP or cysteine; different temperature and pH.
Setting [8] is: Homo sapiens, A549, read-out: IC50 against cell proliferation, A549.
Setting [9] is: Homo sapiens, MCF7, read-out: IC50 against cell proliferation, MCF-7.
Where [10] appears, read: read-out: IC50 against cell proliferation, A549.
The mark [11] stands for this setting: read-out: IC50 against cell proliferation, MCF-7.

On to `S=P1(c2ccccc2)SCCS1` [Compound S10, 2-phenyl-1,3,2-dithiaphospholane 2-sulfide], for which the IC50 is greater than 200 µM in [1]; 557 ± 18.5 µM in the data set with A549 (setting [8]); 603 ± 20.8 µM in the data set with HeLa (Homo sapiens, HeLa); 455 ± 2.4 µM with MCF-7 (setting [9]); greater than 400 µM in data set [3]; greater than 200 µM in the data set with WI38 normal cells [6]. For the same molecule, the “Toxicity in words, HepG2” value in data set [2] was “low cytotoxicity”. Also, in data set [4], the “Toxicity in words, LO2” value was “low cytotoxicity”. Also, in the data set with WI38 normal cells [5], the “Toxicity in words, WI38” value is “low cytotoxicity”.
Regarding `S=P1(c2ccccc2)OCc2ccccc2CO1` [Compound S13, 3-phenyl-1,5-dihydrobenzo [e] [1,3,2] dioxaphosphepine 3-sulfide], the IC50 in data set [1] was greater than 200 µM; with A549 (setting [8]), 500 ± 18.2 µM; with HeLa (Homo sapiens, HeLa), 633 ± 18.3 µM; in the data set on MCF-7 (setting [9]), 460 ± 3.5 µM; in [3], greater than 400 µM; with WI38 normal cells [6], greater than 200 µM. Also, the “Toxicity in words, HepG2” value in data set [2] was “low cytotoxicity”. Moreover, the “Toxicity in words, LO2” value in data set [4] is reported as “low cytotoxicity”. The “Toxicity in words, WI38” value in the data set with WI38 normal cells [5] is reported as “low cytotoxicity”.
In the case of `S=P1(c2ccccc2)NCCCO1` (centres unmarked) [Compound S3, 2-phenyl-1,3,2-oxazaphosphinane 2-sulfide], the IC50 is greater than 200 µM in [1]; 700 ± 32.3 µM with A549 (setting [8]); 826 ± 17.1 µM in the data set with HeLa (Homo sapiens, HeLa); 470 ± 4.1 µM with MCF-7 (setting [9]); greater than 400 µM in data set [3]; greater than 200 µM in the data set with WI38 normal cells [6]. For the same molecule, in [2], the “Toxicity in words, HepG2” value is on record as “low cytotoxicity”. The “Toxicity in words, LO2” value in data set [4] is listed as “low cytotoxicity”. In addition, the “Toxicity in words, WI38” value with WI38 normal cells [5] was “low cytotoxicity”.
Take `S=P1(c2ccccc2)NCCCCN1` [Compound S7, 2-phenyl-1,3,2-diazaphosphepane 2-sulfide]: the IC50 in data set [1] is greater than 200 µM; with A549 (setting [8]), 730 ± 32.3 µM; in the data set on HeLa (Homo sapiens, HeLa) it was 655 ± 15.3 µM; in the data set on MCF-7 (setting [9]), 473 ± 4.2 µM; in data set [3], greater than 400 µM; in the data set on WI38 normal cells [6], greater than 200 µM. Also, the “Toxicity in words, HepG2” value in data set [2] is “low cytotoxicity”. Also, the “Toxicity in words, LO2” value in data set [4] was “low cytotoxicity”. In addition, in the data set with WI38 normal cells [5], the “Toxicity in words, WI38” value is recorded as “low cytotoxicity”.
Turning to `S=P1(c2ccccc2)Oc2ccc3cccc4c5cccc6ccc(c(c2c34)c65)O1` [Compound S15, 2-phenylperyleno [1,12-def][1,3,2] dioxaphosphepine 2-sulfide], the IC50 in data set [1] was greater than 200 µM; in the data set on A549 (setting [8]), 520 ± 22.7 µM; in the data set with HeLa (Homo sapiens, HeLa), 733 ± 28.2 µM; in the data set on MCF-7 (setting [9]) it was 266 ± 3.5 µM; in data set [3], greater than 400 µM; in the data set with WI38 normal cells [6] it was greater than 200 µM.
Turning to `S=P1(c2ccccc2)NCNCN1` [Compound S9, 2-phenyl-1,3,5,2-triazaphosphinane 2-sulfide], the IC50 in data set [1] is greater than 200 µM; with A549 (setting [8]), 590 ± 27.1 µM; in the data set with HeLa (Homo sapiens, HeLa), 730 ± 20.7 µM; with MCF-7 (setting [9]), 459 ± 3.7 µM; in data set [3] it was greater than 400 µM; in the data set with WI38 normal cells [6] it was greater than 200 µM. In addition, in data set [2], the “Toxicity in words, HepG2” value was “low cytotoxicity”. For the same molecule, in [4], the “Toxicity in words, LO2” value is given as “low cytotoxicity”. Besides, the “Toxicity in words, WI38” value with WI38 normal cells [5] is given as “low cytotoxicity”.
`Cc1ccc2c(c1)NP(=S)(c1ccccc1)O2` (centres unmarked) [Compound S14, 5-methyl-2-phenyl-3H benzo [d][1,3,2] oxazaphosphole 2-sulfide]: the IC50 is 220 ± 20.1 µM in the data set on A549 (setting [10]); 530 ± 11.3 µM in the data set on HeLa; 31 ± 2.5 µM in the data set with MCF-7 (setting [11]); greater than 400 µM in data set [2]; greater than 200 µM in [4]; greater than 200 µM in the data set on WI38 normal cells [5]. For the same molecule, in data set [7], the “H2S release amount (in words)” value was “the highest amount of hydrogen sulfide was released”.
As to `S=P1(c2ccccc2)OCCCCO1` [Compound S8, 2-phenyl-1,3,2-dioxaphosphepane 2-sulfide], the IC50 was 803 ± 20.8 µM in the data set with A549 (setting [10]); 730 ± 20.5 µM in the data set with HeLa; 480 ± 3.8 µM with MCF-7 (setting [11]); greater than 400 µM in [2]; greater than 200 µM in [4]; greater than 200 µM with WI38 normal cells [5]. Also, the “Toxicity in words, HepG2” value in data set [2] is on record as “low cytotoxicity”. For the same molecule, the “Toxicity in words, LO2” value in [4] is “low cytotoxicity”. In addition, in the data set with WI38 normal cells [5], the “Toxicity in words, WI38” value was “low cytotoxicity”.
As for `S=P1(c2ccccc2)NCCO1` (centres unmarked) [Compound S2, 2-phenyl-1,3,2-oxazaphospholidine 2-sulfide], the IC50 in [1] was greater than 200 µM; in the data set with A549 (setting [8]), 650 ± 32.5 µM; in the data set with HeLa (Homo sapiens, HeLa), 736 ± 22.1 µM; with MCF-7 (setting [9]), 455 ± 3.2 µM; in data set [3], greater than 400 µM; in the data set on WI38 normal cells [6], greater than 200 µM. Further, the “Toxicity in words, HepG2” value in data set [2] is listed as “low cytotoxicity”. Also, in [4], the “Toxicity in words, LO2” value is listed as “low cytotoxicity”. Further, the “Toxicity in words, WI38” value in the data set on WI38 normal cells [5] is recorded as “low cytotoxicity”.
Turning to `S=P1(c2ccccc2)NCCCCCCO1` (centres unmarked) [Compound S6, 2-phenyl-1,3,2-oxazaphosphonane 2-sulfide], the IC50 was greater than 200 µM in [1]; 710 ± 22.6 µM in the data set with A549 (setting [8]); 645 ± 15.5 µM in the data set on HeLa (Homo sapiens, HeLa); 471 ± 5.4 µM in the data set with MCF-7 (setting [9]); greater than 400 µM in data set [3]; greater than 200 µM in the data set on WI38 normal cells [6]. Further, the “Toxicity in words, HepG2” value in data set [2] is listed as “low cytotoxicity”. In addition, the “Toxicity in words, LO2” value in data set [4] was “low cytotoxicity”. In addition, the “Toxicity in words, WI38” value with WI38 normal cells [5] was “low cytotoxicity”.
As to `S=P1(c2ccccc2)NCCCCCO1` (centres unmarked) [Compound S5, 2-phenyl-1,3,2-oxazaphosphocane 2-sulfide], the IC50 is greater than 200 µM in data set [1]; 680 ± 20.5 µM in the data set with A549 (setting [8]); 622 ± 20.6 µM in the data set with HeLa (Homo sapiens, HeLa); 468 ± 3.4 µM with MCF-7 (setting [9]); greater than 400 µM in data set [3]; greater than 200 µM in the data set on WI38 normal cells [6]. Moreover, the “Toxicity in words, HepG2” value in data set [2] is “low cytotoxicity”. Further, the “Toxicity in words, LO2” value in [4] was “low cytotoxicity”. For the same molecule, in the data set with WI38 normal cells [5], the “Toxicity in words, WI38” value is “low cytotoxicity”.
Take `N#Cc1ccc2c(c1)NP(=S)(c1ccccc1)O2` (centres unmarked) [Compound S16, 2-phenyl-3H-benzo [d][1,3,2] oxazaphosphole-5-carbonitrile 2-sulfide]: the IC50 in the data set with A549 (setting [10]) is 280 ± 28.3 µM; in the data set on HeLa, 520 ± 20.3 µM; in the data set on MCF-7 (setting [11]) it was 28 ± 2.7 µM; in data set [2], greater than 400 µM; in [4], greater than 200 µM; in the data set on WI38 normal cells [5], greater than 200 µM. The “H2S release amount (in words)” value in data set [7] was “the highest amount of hydrogen sulfide was released”.
For `S=P1(c2ccccc2)Oc2ccccc2-c2ccccc2O1` [Compound S12, 6-phenyldibenzo [d, f][1,3,2] dioxaphosphepine 6-sulfide], the IC50 in [1] is greater than 200 µM; with A549 (setting [8]), 640 ± 15.5 µM; in the data set on HeLa (Homo sapiens, HeLa), 703 ± 17.7 µM; in the data set on MCF-7 (setting [9]) it was 164 ± 4.1 µM; in data set [3], greater than 400 µM; in the data set with WI38 normal cells [6], greater than 200 µM. In data set [2], the “Toxicity in words, HepG2” value is reported as “low cytotoxicity”. For the same molecule, the “Toxicity in words, LO2” value in data set [4] is “low cytotoxicity”. Moreover, in the data set on WI38 normal cells [5], the “Toxicity in words, WI38” value was “low cytotoxicity”.
Turning to `S=P1(c2ccccc2)NCCCCO1` (centres unmarked) [Compound S4, 2-phenyl-1,3,2-oxazaphosphepane 2-sulfide], the IC50 in [1] was greater than 200 µM; in the data set with A549 (setting [8]), 720 ± 22.4 µM; in the data set on HeLa (Homo sapiens, HeLa), 836 ± 19.7 µM; in the data set with MCF-7 (setting [9]), 472 ± 3.3 µM; in data set [3], greater than 400 µM; with WI38 normal cells [6] it was greater than 200 µM. Besides, the “Toxicity in words, HepG2” value in [2] is “low cytotoxicity”. Further, in [4], the “Toxicity in words, LO2” value is listed as “low cytotoxicity”. Moreover, in the data set on WI38 normal cells [5], the “Toxicity in words, WI38” value is on record as “low cytotoxicity”.
